# Source: PMC11488110 (Theranostics, 2024)
# Columns and labels:
# primary mouse astrocytes = test: LPS/IFNγ-induced inflammatory responses in primary mouse astrocytes; type: cell-based
# CYP2C9 = target: T1, CYP2C9 (Homo sapiens, UniProt P11712); test: CYP inhibition assay, human liver microsomes; type: in vitro ADME
# T1 construct: performed using 0.25 mg/mL human liver microsomes; from tissue; host or cells: human liver microsomes
# Description: (§1) All incubations were performed in duplicate, and the mean values were used for analysis. Cocktail incubations were carried out using […] probe substrates of CYP1A2, CYP2C9, CYP2C19, CYP2D6, and CYP3A4: phenacetin, tolbutamide, mephenytoin, dextromethorphan and midazolam respectively, followed by tandem mass spectrometry. Briefly, an incubation reaction was performed using 0.25 mg/mL human liver microsomes in a final incubation volume of 100 μL. The incubation medium contained 100 mM phosphate buffer (pH 7.4) and probe substrates. The incubation mixture containing various inhibitors (10 μM) was pre-incubated for 5 min. After pre-incubation, an NADPH-regenerating system was added. After incubation at 37 °C for 15 min, the reaction was stopped by placing the incubation tubes on ice and adding 40 μL of ice-cold acetonitrile. The incubation mixtures were centrifuged at 10,000 g and 4 °C for 5 min. Aliquots of the supernatant were injected onto an LC-MS/MS system. The CYP-mediated activities in the presence of inhibitors were expressed as a percentage of the corresponding control value.
# (§2) Ta b l e S2 . CYP inhibition, microsomal stability, and hERG in hibition of 5a .
# (§3) CYP inhibitiona Microsomal stabilityb
# (§4) ( % of c ont rol ac ti vit y) (% of remaining compound) hERG inhibitionc (IC50, μ M) […]
# (§5) aCytochrome P450 (CYP450) enzyme activity was measured by incubating CYP450 enzyme isotype-specific substrates and liver microsomes in the presence of the test compound (10 μM) for 15 min. Data are expressed as percent of CYP enzyme activity relative to that of t he v ehicle-treated control. […]
# (§6) a- cThe results of these three assays were obtained through the in vitro ADME/Tox study service of KMEDIhub, a contract research organization (CRO). The reported measurements are the mean of […]
# CYP2D6 = target: T2, CYP2D6 (Homo sapiens, UniProt P10635); test: CYP inhibition assay, human liver microsomes; type: in vitro ADME
# T2 construct: performed using 0.25 mg/mL human liver microsomes; from tissue; host or cells: human liver microsomes
# Description: as §1, §2, §3, §4, §5, §6
# CYP1A2 = target: T3, CYP1A2 (Homo sapiens, UniProt P05177); test: CYP inhibition assay, human liver microsomes; type: in vitro ADME
# T3 construct: performed using 0.25 mg/mL human liver microsomes; from tissue; host or cells: human liver microsomes
# T3 sequence (P05177 1-516): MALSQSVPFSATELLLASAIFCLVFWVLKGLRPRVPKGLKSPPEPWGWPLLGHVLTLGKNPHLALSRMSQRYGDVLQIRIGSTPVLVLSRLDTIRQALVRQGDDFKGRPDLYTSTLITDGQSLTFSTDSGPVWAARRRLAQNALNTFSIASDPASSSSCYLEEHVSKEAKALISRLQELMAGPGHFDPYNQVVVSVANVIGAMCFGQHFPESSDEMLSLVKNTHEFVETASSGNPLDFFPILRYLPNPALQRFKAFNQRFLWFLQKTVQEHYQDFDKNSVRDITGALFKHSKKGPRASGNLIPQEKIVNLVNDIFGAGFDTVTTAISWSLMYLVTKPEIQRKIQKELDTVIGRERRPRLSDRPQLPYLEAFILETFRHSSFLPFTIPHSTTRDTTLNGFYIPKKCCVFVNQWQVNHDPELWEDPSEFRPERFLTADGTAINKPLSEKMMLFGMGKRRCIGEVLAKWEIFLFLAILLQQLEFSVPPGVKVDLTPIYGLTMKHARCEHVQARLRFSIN
# Description: as §1, §2, §3, §4, §5, §6
# CYP3A4 = target: T4, CYP3A4 (Homo sapiens, UniProt P08684); test: CYP inhibition assay, human liver microsomes; type: in vitro ADME
# T4 construct: performed using 0.25 mg/mL human liver microsomes; from tissue; host or cells: human liver microsomes
# Description: as §1, §2, §3, §4, §5, §6
# CYP2C19 = target: T5, CYP2C19 (Homo sapiens, UniProt P33261); test: CYP inhibition assay, human liver microsomes; type: in vitro ADME
# T5 construct: performed using 0.25 mg/mL human liver microsomes; from tissue; host or cells: human liver microsomes
# Description: as §1, §2, §3, §4, §5, §6
# hPPARα = target: T6, hPPARα (Homo sapiens, UniProt Q07869); test: In vitro co-transfection (PPRE-luciferase) assay in CV-1 cells, hPPARα; type: cell-based; conditions: 24 h, read-out: Potency (EC50) hPPARα
# T6 sequence (Q07869 1-468): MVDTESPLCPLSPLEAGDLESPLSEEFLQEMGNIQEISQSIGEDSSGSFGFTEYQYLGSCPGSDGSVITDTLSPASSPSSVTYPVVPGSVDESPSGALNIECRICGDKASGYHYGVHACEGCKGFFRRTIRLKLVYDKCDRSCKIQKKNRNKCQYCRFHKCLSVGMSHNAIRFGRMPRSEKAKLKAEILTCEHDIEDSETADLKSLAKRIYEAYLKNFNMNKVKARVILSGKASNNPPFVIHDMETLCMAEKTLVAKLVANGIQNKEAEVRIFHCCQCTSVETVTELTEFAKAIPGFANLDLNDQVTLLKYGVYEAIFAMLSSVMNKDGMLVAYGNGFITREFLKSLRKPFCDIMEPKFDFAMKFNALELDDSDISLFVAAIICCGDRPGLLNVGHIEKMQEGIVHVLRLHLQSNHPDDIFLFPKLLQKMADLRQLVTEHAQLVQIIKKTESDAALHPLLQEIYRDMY
# [1] = tested on: C57BL/6N mice with scopolamine-induced cognitive impairment; test: Scopolamine-induced memory impairment mouse model; type: in vivo
# hPPARγ = target: T7, hPPARγ (Homo sapiens, UniProt P37231); test: In vitro co-transfection (PPRE-luciferase) assay in CV-1 cells, hPPARγ; type: cell-based; conditions: 24 h, read-out: Potency (EC50) hPPARγ
# T7 sequence (P37231 1-505): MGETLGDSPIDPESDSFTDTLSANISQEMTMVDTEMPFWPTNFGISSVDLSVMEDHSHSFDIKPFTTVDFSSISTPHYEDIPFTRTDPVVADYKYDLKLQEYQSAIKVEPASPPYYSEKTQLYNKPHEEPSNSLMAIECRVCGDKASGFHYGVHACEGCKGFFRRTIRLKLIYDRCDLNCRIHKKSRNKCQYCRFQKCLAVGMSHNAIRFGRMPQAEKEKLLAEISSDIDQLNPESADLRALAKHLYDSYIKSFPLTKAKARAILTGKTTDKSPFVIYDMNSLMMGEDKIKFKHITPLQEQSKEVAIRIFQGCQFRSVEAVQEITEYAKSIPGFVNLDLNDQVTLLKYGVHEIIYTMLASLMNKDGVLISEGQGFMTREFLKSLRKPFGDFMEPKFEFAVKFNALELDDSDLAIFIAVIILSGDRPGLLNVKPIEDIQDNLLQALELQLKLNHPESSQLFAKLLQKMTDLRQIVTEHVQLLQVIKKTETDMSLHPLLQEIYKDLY
# [2] = 10 μM, 15 min, human liver microsomes
# [3] = stated for the five CYP subtypes, tested at 10 µM
# [4] = 30 mg/kg/day p.o. 5 days before scopolamine 1 mg/kg i.p.
# T2 sequence (P10635 whole entry): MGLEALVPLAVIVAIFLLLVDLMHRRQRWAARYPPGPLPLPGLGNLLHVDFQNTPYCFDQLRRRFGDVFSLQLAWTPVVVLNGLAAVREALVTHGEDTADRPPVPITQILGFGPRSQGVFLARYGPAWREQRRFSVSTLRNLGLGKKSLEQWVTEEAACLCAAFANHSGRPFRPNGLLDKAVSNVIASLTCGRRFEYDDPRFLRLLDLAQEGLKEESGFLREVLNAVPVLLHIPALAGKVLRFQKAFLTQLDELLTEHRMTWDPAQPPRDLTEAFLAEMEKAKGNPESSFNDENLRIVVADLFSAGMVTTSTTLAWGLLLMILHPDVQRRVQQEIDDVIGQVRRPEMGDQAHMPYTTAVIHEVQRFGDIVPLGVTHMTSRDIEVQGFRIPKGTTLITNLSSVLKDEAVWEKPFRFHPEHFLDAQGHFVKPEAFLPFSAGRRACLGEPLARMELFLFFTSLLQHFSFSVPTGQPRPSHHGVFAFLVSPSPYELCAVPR
# T4 sequence (P08684 whole entry): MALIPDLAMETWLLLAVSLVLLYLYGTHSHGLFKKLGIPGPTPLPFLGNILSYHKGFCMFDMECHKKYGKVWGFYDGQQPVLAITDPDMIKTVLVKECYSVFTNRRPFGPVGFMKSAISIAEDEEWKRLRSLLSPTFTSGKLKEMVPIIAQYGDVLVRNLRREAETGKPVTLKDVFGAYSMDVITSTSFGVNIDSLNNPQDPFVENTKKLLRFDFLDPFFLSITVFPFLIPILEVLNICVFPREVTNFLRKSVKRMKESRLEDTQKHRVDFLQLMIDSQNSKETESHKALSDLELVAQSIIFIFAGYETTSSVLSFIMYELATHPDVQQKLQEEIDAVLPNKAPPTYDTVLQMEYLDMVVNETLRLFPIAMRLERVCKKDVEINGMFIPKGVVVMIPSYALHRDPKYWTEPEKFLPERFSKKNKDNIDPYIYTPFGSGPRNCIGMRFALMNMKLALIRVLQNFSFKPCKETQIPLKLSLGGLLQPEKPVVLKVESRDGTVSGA
# T5 sequence (P33261 whole entry): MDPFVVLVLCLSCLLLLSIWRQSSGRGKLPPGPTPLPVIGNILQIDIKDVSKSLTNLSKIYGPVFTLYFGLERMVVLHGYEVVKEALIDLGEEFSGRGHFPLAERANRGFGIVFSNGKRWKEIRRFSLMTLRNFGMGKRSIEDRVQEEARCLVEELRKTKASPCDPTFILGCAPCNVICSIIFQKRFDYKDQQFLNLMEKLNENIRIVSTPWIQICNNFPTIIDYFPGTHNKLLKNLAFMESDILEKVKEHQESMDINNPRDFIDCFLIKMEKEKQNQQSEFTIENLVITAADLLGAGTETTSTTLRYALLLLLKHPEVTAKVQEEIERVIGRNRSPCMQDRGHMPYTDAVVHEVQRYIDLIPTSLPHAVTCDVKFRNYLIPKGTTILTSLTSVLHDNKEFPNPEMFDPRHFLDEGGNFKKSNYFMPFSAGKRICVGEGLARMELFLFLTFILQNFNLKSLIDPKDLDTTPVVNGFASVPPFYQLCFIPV
# T1 sequence (P11712 whole entry): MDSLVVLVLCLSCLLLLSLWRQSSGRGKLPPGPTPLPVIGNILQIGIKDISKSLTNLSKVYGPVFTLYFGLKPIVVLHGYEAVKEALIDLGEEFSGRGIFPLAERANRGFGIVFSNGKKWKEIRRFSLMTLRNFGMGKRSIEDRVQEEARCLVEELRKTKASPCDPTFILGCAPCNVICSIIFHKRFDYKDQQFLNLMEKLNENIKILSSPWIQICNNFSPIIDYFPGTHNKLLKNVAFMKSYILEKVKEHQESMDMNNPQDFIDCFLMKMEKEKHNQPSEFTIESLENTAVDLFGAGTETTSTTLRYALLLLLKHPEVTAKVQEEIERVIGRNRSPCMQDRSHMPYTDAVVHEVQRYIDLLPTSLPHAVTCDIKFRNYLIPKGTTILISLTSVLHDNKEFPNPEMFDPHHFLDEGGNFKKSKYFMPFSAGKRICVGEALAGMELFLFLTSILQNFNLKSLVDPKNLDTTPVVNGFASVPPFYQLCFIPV
structure (smiles),measurement,setting,value
"Cc1cc(SCc2[se]c(-c3ccc(C(F)(F)F)cc3)nc2C)ccc1OCC(=O)O [Compound 5a, {2-Methyl-4-[4-methyl-2-(4-trifluoromethyl-phenyl)-selenazol-5-yl-methylsulfanyl]-phenoxy}-acetic acid]",LPS/IFNγ-induced NO release,primary mouse astrocytes; primary astrocytes,significantly reduced NO release
same,"LPS/IFNγ-induced production of TNF-α, IL-1β and IL-6",primary mouse astrocytes; primary astrocytes,suppressed the production of pro-inflammatory cytokines
same,Anti-inflammatory effects on astrocytes compared with GW501516,primary mouse astrocytes; same concentration,superior to those of GW501516
same,CYP inhibition 2C9 (% of control activity),CYP2C9; [2],63.6 % of control activity
same,IC50,CYP2C9; [3],> 10 µM
same,CYP inhibition 2D6 (% of control activity),CYP2D6; [2],92.1 % of control activity
same,IC50,CYP2D6; [3],> 10 µM
same,CYP inhibition 1A2 (% of control activity),CYP1A2; [2],78.1 % of control activity
same,IC50,CYP1A2; [3],> 10 µM
same,CYP inhibition 3A4 (% of control activity),CYP3A4; [2],94.9 % of control activity
same,IC50,CYP3A4; [3],> 10 µM
same,CYP inhibition 2C19 (% of control activity),CYP2C19; [2],88.6 % of control activity
same,IC50,CYP2C19; [3],> 10 µM
same,EC50,hPPARα,> 10 µM
same,Y-maze spontaneous alternation,[1]; [4],prevented the decrease in alternation percentage
same,Y-maze total number of arm entries,[1]; [4],without inducing any changes
same,Passive avoidance step-through latency,"[1]; 30 mg/kg/day p.o., scopolamine 1 mg/kg i.p.",mitigated this effect
same,"Memory in Y-maze, passive avoidance and Morris water maze","[1]; post-administration, 10 mg/kg p.o.",significantly restored the memory impairment
same,"Memory in Y-maze, passive avoidance and Morris water maze","[1]; post-administration, 30 mg/kg p.o.",maximum efficacy
same,Cognitive improvement compared with GW501516,"[1]; post-administration, same dose 30 mg/kg",superior in vivo efficacy
same,EC50,hPPARγ,> 10 µM
